Measurements taken from patent publication US10155021B2, “Antimicrobial 4-oxoquinolizines” (Emergent Product Development Gaithersburg Inc., priority 2011, dated 2018).
In brackets after ≈: the same amount, converted by molar mass. Like-named read-outs stand apart in the source and are kept apart here.

How the values were obtained:
[1] = test system: Acinetobacter sp. (H064200250); experiment: Preliminary MBC without and with sub-inhibitory polymyxin B (Example 4); format: cell-based; conditions: Acinetobacter, without polymyxin B, preliminary MBC, read-out: MBC without PB
Outline: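 Read-out: the minimum concentration at which colonies were reduced by ca. 90% relative to positive control, usually seen as isolated colonies or a clear plate. Plates had been kept 18-20 hours at 37° C beforehand.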

A. baumannii A472 [2] = experiment: MIC without and with sub-inhibitory polymyxin B (Example 4); format: cell-based, Acinetobacter baumannii; conditions: for MIC: Acinetobacter baumannii, A472, A. baumannii A472, without polymyxin B, read-out: MIC without PB
E. coli 2906 = experiment: MIC, panel of quinolone-resistant strains (CLSI); format: cell-based; conditions: Escherichia coli, CIP R
[3] = test system: Acinetobacter sp. (H064200250); experiment: MIC without and with sub-inhibitory polymyxin B (Example 4); format: cell-based; conditions: Acinetobacter, without polymyxin B
A. baumannii A390 = experiment: Preliminary MBC without and with sub-inhibitory polymyxin B (Example 4); format: cell-based, Acinetobacter baumannii; conditions: Acinetobacter baumannii, A390, A. baumannii A390; without polymyxin B; preliminary MBC; 1st experiment; read-out: MBC without PB
A. baumannii A472 [4] = experiment: MIC determination for Acinetobacter strains (Example 3); format: cell-based; conditions: LEV R, CIP R, MRP I, IMP I, AMK R, TET R
A. baumannii A401 [5] = experiment: MIC without and with sub-inhibitory polymyxin B (Example 4); format: cell-based, Acinetobacter baumannii; conditions: Acinetobacter baumannii, A401, A baumannii A 401, without polymyxin B, read-out: MIC without PB
A. baumannii A472 [6] = experiment: Preliminary MBC without and with sub-inhibitory polymyxin B (Example 4); format: cell-based, Acinetobacter baumannii; conditions: Acinetobacter baumannii, A472, A. baumannii A472, without polymyxin B, read-out: MBC without PB
P. aeruginosa 143-3-03 = experiment: MIC, panel of quinolone-resistant strains (CLSI); format: cell-based; conditions: Pseudomonas aeruginosa, 143303; CIP I, POL R
A. baumannii A473 [7] = experiment: Preliminary MBC without and with sub-inhibitory polymyxin B (Example 4); format: cell-based, Acinetobacter baumannii; conditions: Acinetobacter baumannii, A473, A. baumannii A473, without polymyxin B, read-out: MBC without PB
A. baumannii A489 [8] = experiment: MIC without and with sub-inhibitory polymyxin B (Example 4); format: cell-based, Acinetobacter baumannii; conditions: Acinetobacter baumannii, A489, A. baumannii A489, without polymyxin B, read-out: MIC without PB
A. baumannii A401 [9] = experiment: Preliminary MBC without and with sub-inhibitory polymyxin B (Example 4); format: cell-based, Acinetobacter baumannii; conditions: Acinetobacter baumannii, A401, A baumannii A 401, without polymyxin B, preliminary MBC, read-out: MBC without PB
A. baumannii A473 [10] = experiment: MIC without and with sub-inhibitory polymyxin B (Example 4); format: cell-based, Acinetobacter baumannii; conditions: Acinetobacter baumannii, A473, A. baumannii A473, without polymyxin B, read-out: MIC without PB
P. aeruginosa 1388-3-02 = experiment: MIC, panel of quinolone-resistant strains (CLSI); format: cell-based; conditions: Pseudomonas aeruginosa, 1388302; CIP R, POL R
A. baumannii ATCC 19606 = experiment: MIC without and with sub-inhibitory polymyxin B (Example 4); format: cell-based, Acinetobacter baumannii; conditions: Acinetobacter baumannii, ATCC19606, A. baumannii ATCC 19606; without polymyxin B; 2nd experiment; visual reading; read-out: MIC without PB
[11] = test system: resistant strains of A. baumannii and one strain of Acinetobacter sp.; experiment: MIC without and with sub-inhibitory polymyxin B, whole panel / MIC ranges (Example 4; also strains not listed separately); format: cell-based; conditions: Acinetobacter baumannii
A. baumannii J2 = experiment: Preliminary MBC without and with sub-inhibitory polymyxin B (Example 4); format: cell-based, Acinetobacter baumannii; conditions: Acinetobacter baumannii, J2, A. baumannii J2; without polymyxin B; 2nd experiment; preliminary MBC; read-out: MBC without PB
Klebsiella ssp KPC-3 = experiment: MIC, panel of quinolone-resistant strains (CLSI); format: cell-based, Klebsiella spp; conditions: KPC3, CIP R, ESBL
[12] = test system: Acinetobacter spp. H064200250; experiment: MIC determination for Acinetobacter strains (Example 3); format: cell-based, Acinetobacter sp.; conditions: LEV R, CIP R, MRP R, IMP I
A. baumannii A489 [13] = experiment: Preliminary MBC without and with sub-inhibitory polymyxin B (Example 4); format: cell-based, Acinetobacter baumannii; conditions: Acinetobacter baumannii, A489, A. baumannii A489, without polymyxin B, 1st experiment, read-out: MBC without PB
Pseudomonas ssp PER-1 = experiment: MIC, panel of quinolone-resistant strains (CLSI); format: cell-based, Pseudomonas spp; conditions: PER1, CIP R, ESBL

Question: Which MBC ([1]; Acinetobacter spp. H064200250 (OXA51), 2nd experiment) does the source give for `Cc1c(-c2ccc(N)cc2)c(F)cn2c(=O)c(C(=O)O)cc(C3CC3)c12` [Compound 7, 8-(4-amino-phenyl)-1-cyclopropyl-7-fluoro-9-methyl-4-oxo-quinolizine-3-carboxylic acid] here?
Answer: The MBC was 8 µg/mL (≈ 22.7 µM).

Question: What about the MBC ([1]; Acinetobacter spp. H064200250, 1st experiment) of the same compound?
Answer: The MBC was 4 µg/mL (≈ 11.4 µM).

Question: What about the MIC ratio without/with polymyxin B (A. baumannii A472 [2]; A. baumannii A472, ratio MIC without PB to MIC + PB, PB […], 2nd experiment) of the same compound?
Answer: Its MIC ratio without/with polymyxin B is ≥ 256 µg/mL.

Question: And the MIC (A. baumannii A472 [2]; 1st experiment)?
Answer: The MIC was 4 µg/mL (≈ 11.4 µM).

Question: And the MIC (A. baumannii A472 [2]; 2nd experiment, visual reading)?
Answer: Its MIC is 8 µg/mL (≈ 22.7 µM).

Question: And the MIC (E. coli 2906)?
Answer: The MIC was 32 µg/mL (≈ 90.8 µM).

Question: And the MIC ([3]; Acinetobacter spp. H064200250 (OXA51), 2nd experiment, MIC read with alamar blue, read-out: MIC without PB, read with alamar blue)?
Answer: The MIC was 8 µg/mL (≈ 22.7 µM).

Question: And the MIC ([3]; Acinetobacter spp. H064200250 (OXA51), 2nd experiment, visual reading, read-out: MIC without PB)?
Answer: Its MIC is 16 µg/mL (≈ 45.4 µM).

Question: What about the MIC ([3]; Acinetobacter spp. H064200250, 1st experiment, read-out: MIC without PB) of the same compound?
Answer: Its MIC is 8 µg/mL (≈ 22.7 µM).

Question: And the MBC (A. baumannii A390)?
Answer: The MBC was 4 µg/mL (≈ 11.4 µM).

Question: And the MIC (A. baumannii A472 [4])?
Answer: The MIC was 4 µg/mL (≈ 11.4 µM).

Question: What about the MIC (A. baumannii A401 [5]; 1st experiment) of the same compound?
Answer: The MIC was 4 µg/mL (≈ 11.4 µM).

Question: And the MIC (A. baumannii A401 [5]; 2nd experiment, visual reading)?
Answer: Its MIC is 8 µg/mL (≈ 22.7 µM).

Question: And the MBC (A. baumannii A472 [6]; 1st experiment)?
Answer: Its MBC is 4 µg/mL (≈ 11.4 µM).

Question: And the MBC (A. baumannii A472 [6]; 2nd experiment)?
Answer: The MBC was 8 µg/mL (≈ 22.7 µM).

Question: What about the MIC (P. aeruginosa 143-3-03) of the same compound?
Answer: The MIC was 4 µg/mL (≈ 11.4 µM).

Question: And the MBC (A. baumannii A473 [7]; 1st experiment)?
Answer: The MBC was 4 µg/mL (≈ 11.4 µM).

Question: And the MBC (A. baumannii A473 [7]; 2nd experiment)?
Answer: The MBC was 4 µg/mL (≈ 11.4 µM).

Question: What about the MIC (A. baumannii A489 [8]; 1st experiment) of the same compound?
Answer: Its MIC is 8 µg/mL (≈ 22.7 µM).

Question: And the MIC (A. baumannii A489 [8]; 2nd experiment, visual reading)?
Answer: Its MIC is 8 µg/mL (≈ 22.7 µM).

Question: What about the MBC (A. baumannii A401 [9]; 2nd experiment) of the same compound?
Answer: Its MBC is 8 µg/mL (≈ 22.7 µM).

Question: And the MBC (A. baumannii A401 [9]; 1st experiment)?
Answer: Its MBC is 4 µg/mL (≈ 11.4 µM).

Question: What about the MIC (A. baumannii A473 [10]; 1st experiment) of the same compound?
Answer: Its MIC is 4 µg/mL (≈ 11.4 µM).

Question: And the MIC (A. baumannii A473 [10]; 2nd experiment, visual reading)?
Answer: Its MIC is 4 µg/mL (≈ 11.4 µM).

Question: What about the MIC (P. aeruginosa 1388-3-02) of the same compound?
Answer: Its MIC is 16 µg/mL (≈ 45.4 µM).

Question: What about the MIC (A. baumannii ATCC 19606) of the same compound?
Answer: Its MIC is 0.25 µg/mL (≈ 0.709 µM).

Question: And the MIC ([11]; A. baumannii A14, without polymyxin B, 1st experiment, read-out: MIC without PB)?
Answer: Its MIC is 32 µg/mL (≈ 90.8 µM).

Question: And the MIC ([11]; read-out: MIC range without PB 01-10-2008 n = 8, without polymyxin B, 1st experiment, 8 strains)?
Answer: The MIC was 2 to 32 µg/mL (≈ 5.68 to 90.8 µM).

Question: What about the MIC ([11]; without polymyxin B, 2nd experiment, 11 strains, read-out: MIC range without PB 14-10-2008 n = 11) of the same compound?
Answer: The MIC was 2 to 16 µg/mL (≈ 5.68 to 45.4 µM).

Question: What about the MBC (A. baumannii J2) of the same compound?
Answer: The MBC was 4 µg/mL (≈ 11.4 µM).

Question: What about the MIC (Klebsiella ssp KPC-3) of the same compound?
Answer: The MIC was 16 µg/mL (≈ 45.4 µM).

Question: What about the MIC [12] of the same compound?
Answer: Its MIC is 8 µg/mL (≈ 22.7 µM).

Question: And the MBC (A. baumannii A489 [13])?
Answer: Its MBC is 4 µg/mL (≈ 11.4 µM).

Question: What about the MIC (Pseudomonas ssp PER-1) of the same compound?
Answer: Its MIC is 16 µg/mL (≈ 45.4 µM).
